Columns and labels:
Assay in all cases: relative viability (nuclei count vs DMSO), 5 days (fraction); higher = more cells survive
Trametinib + Pictilisib = compound: CC(=O)Nc1cccc(-n2c(=O)n(C3CC3)c(=O)c3c(Nc4ccc(I)cc4F)n(C)c(=O)c(C)c32)c1 [Trametinib] + CS(=O)(=O)N1CCN(Cc2cc3nc(-c4cccc5[nH]ncc45)nc(N4CCOCC4)c3s2)CC1 [Pictilisib] (partner 1 µM)
Procedure, shortened: (§1)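 The day after seeding in 1536-well plates, lung cancer cell lines were treated by pin tool with a single drug, or with a fixed anchor-drug dose together with five library-drug doses (not always all listed) in √10 steps. After 5 days, a combined fix-and-stain solution (final 0.05% Triton X-100, 1% formaldehyde, 1 ug/ml Hoechst) was added. Nuclei counted on 4× images gave relative viability as treated counts over vehicle counts, reported as the median of duplicate plates.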

Trametinib + Dasatinib = compound: CC(=O)Nc1cccc(-n2c(=O)n(C3CC3)c(=O)c3c(Nc4ccc(I)cc4F)n(C)c(=O)c(C)c32)c1 [Trametinib] + Cc1nc(Nc2ncc(C(=O)Nc3c(C)cccc3Cl)s2)cc(N2CCN(CCO)CC2)n1 [Dasatinib] (partner 0.075 µM)
Procedure, shortened: as §1

[1] = compound: CN1C=C(C2=CC=CC=C21)/C=C\3/C4=C(C=CC=N4)NC3=O + COc1cccc2cc(-c3nc([C@H]4CC[C@H](C(=O)O)CC4)n4ncnc(N)c34)[nH]c12 [OSI-027] (partner 0.5 µM)
Procedure, shortened: as §1

[2] = compound: CN1C=C(C2=CC=CC=C21)/C=C\3/C4=C(C=CC=N4)NC3=O + N=C(N)NC(=N)NCCc1ccccc1 [Phenformin] (partner 250 µM)
Procedure, shortened: as §1

| Cell Line | relative viability (Trametinib + Pictilisib; first compound 0.0025 µM) | relative viability (Trametinib + Pictilisib; first compound 0.007906 µM) | relative viability (Trametinib + Pictilisib; first compound 0.025 µM) | relative viability (Trametinib + Pictilisib; first compound 0.07906 µM) | relative viability (Trametinib + Pictilisib; first compound 0.25 µM) | relative viability (Trametinib + Dasatinib; first compound 0.0025 µM) | relative viability (Trametinib + Dasatinib; first compound 0.007906 µM) | relative viability (Trametinib + Dasatinib; first compound 0.025 µM) | relative viability (Trametinib + Dasatinib; first compound 0.07906 µM) | relative viability (Trametinib + Dasatinib; first compound 0.25 µM) | relative viability ([1]; first compound 0.02 µM) | relative viability ([1]; first compound 0.06325 µM) | relative viability ([1]; first compound 0.2 µM) | relative viability ([1]; first compound 0.6325 µM) | relative viability ([1]; first compound 2 µM) | relative viability ([2]; first compound 0.02 µM) | relative viability ([2]; first compound 0.06325 µM) | relative viability ([2]; first compound 0.2 µM) | relative viability ([2]; first compound 0.6325 µM) | relative viability ([2]; first compound 2 µM) |
| --- | --- | --- | --- | --- | --- | --- | --- | --- | --- | --- | --- | --- | --- | --- | --- | --- | --- | --- | --- | --- |
| NCI-H358 | 0.311 | 0.328 | 0.233 | 0.22 | 0.363 | 0.137 | 0.117 | 0.103 | 0.11 | 0.143 | 0.756 | 0.67 | 0.768 | 0.851 | 0.689 | 0.301 | 0.316 | 0.311 | 0.4 | 0.4 |
| NCI-H441 | 0.44 | 0.306 | 0.234 | 0.214 | 0.163 | 0.37 | 0.49 | 0.249 | 0.287 | 0.206 | 0.557 | 0.646 | 0.739 | 0.607 | 0.459 | 0.795 | 0.754 | 0.804 | 0.88 | 0.772 |
| NCI-H460 | 0.302 | 0.23 | 0.156 | 0.125 | 0.0758 | 0.369 | 0.176 | 0.138 | 0.085 | 0.0431 | 0.81 | 0.726 | 0.649 | 0.63 | 0.676 | 0.553 | 0.526 | 0.52 | 0.56 | 0.571 |
| NCI-H520 | 0.294 | 0.292 | 0.259 | 0.195 | 0.217 | 0.281 | 0.225 | 0.288 | 0.282 | 0.176 | 0.199 | 0.223 | 0.289 | 0.275 | 0.266 | 0.453 | 0.503 | 0.54 | 0.669 | 0.533 |
| NCI-H596 | 0.367 | 0.316 | 0.338 | 0.314 | 0.33 | 0.533 | 0.535 | 0.495 | 0.487 | 0.303 | 0.656 | 0.764 | 0.566 | 0.692 | 0.633 | 0.858 | 0.67 | 0.619 | 0.698 | 0.709 |
| NCI-H647 | 0.348 | 0.301 | 0.235 | 0.206 | 0.127 | 0.169 | 0.22 | 0.184 | 0.107 | 0.0699 | 0.719 | 0.616 | 0.478 | 0.655 | 0.557 | 0.387 | 0.387 | 0.343 | 0.479 | 0.528 |
| NCI-H650 | 1.05 | 1.18 | 0.998 | 0.919 | 0.565 | 0.573 | 0.615 | 0.541 | 0.445 | 0.356 | 0.628 | 0.515 |  | 0.529 | 0.506 | 0.474 | 0.481 |  | 0.421 | 0.404 |
| NCI-H661 | 0.377 | 0.426 | 0.222 | 0.273 | 0.257 | 0.816 | 0.796 | 0.565 | 0.481 | 0.513 | 0.751 | 0.689 | 0.722 | 0.676 | 0.76 | 0.261 | 0.277 | 0.266 | 0.276 | 0.264 |
| NCI-H727 | 0.333 | 0.207 | 0.176 | 0.149 | 0.25 | 0.31 | 0.212 | 0.347 | 0.196 | 0.244 | 0.57 | 0.553 | 0.408 | 0.657 | 0.58 | 0.414 | 0.448 | 0.442 | 0.586 | 0.528 |
| NCI-H838 | 0.351 | 0.415 |  | 0.319 | 0.281 | 0.251 | 0.322 | 0.214 | 0.27 | 0.249 | 0.335 | 0.326 | 0.354 | 0.366 | 0.319 | 0.5 | 0.533 | 0.519 | 0.569 | 0.535 |
| NCI-H1355 | 0.339 | 0.313 | 0.199 | 0.228 | 0.214 | 0.607 | 0.528 | 0.337 | 0.373 | 0.326 | 0.371 | 0.348 | 0.3 | 0.345 | 0.362 | 0.439 | 0.388 | 0.398 | 0.358 | 0.434 |
| NCI-H1395 | 0.607 | 0.631 | 0.576 | 0.453 | 0.65 | 0.44 | 0.662 | 0.454 | 0.378 | 0.345 | 0.604 | 0.613 | 0.445 | 0.669 | 0.601 | 0.436 | 0.429 | 0.365 | 0.446 | 0.414 |
| NCI-H1437 | 0.151 | 0.144 | 0.113 | 0.129 | 0.148 | 0.374 | 0.207 | 0.162 | 0.118 | 0.217 | 0.862 | 0.897 | 0.793 | 0.927 | 1.01 | 0.307 | 0.325 | 0.231 | 0.28 | 0.267 |

Reference: the supplement of paper PMC10307832
